Experimental data: BigSolDB 2.1

O=[N+]([O-])c1cccc(Cl)c1Cl
solubility (mole fraction)
Settings	in ethanol	in methanol	in water
278.15 K	0.013	0.0122	1.6e-06
280.65 K	0.0149	0.0137	2.03e-06
283.15 K	0.0172	0.0157	2.45e-06
285.65 K	0.0203	0.0182	2.88e-06
288.15 K	0.0231	0.0206	3.91e-06
290.65 K	0.0257	0.0232	4.85e-06
293.15 K	0.0286	0.0258	5.85e-06
295.65 K	0.0322	0.0288	6.98e-06
298.15 K	0.0366	0.0315	8.68e-06
300.65 K	0.0418	0.0343	1.07e-05
303.15 K	0.0465	0.0376	1.29e-05
